# Source: patent US20120301551A1, “COMPOUNDS AND COMPOSITIONS FOR TREATING NEURONAL DEATH OR NEUROLOGICAL DYSFUNCTION” (Neurotech Pharmaceuticals Co., Ltd., priority 2005, published 2012)
# “And” between values parts separate entries of the source, which are not always exact repeats. Equal entries are not always repeated. “Also recorded” adds a separate entry of the source. Where two headings read alike, the source gives them in different places. Residues, ends and D or L forms follow the SMILES beside them. *: point of attachment. Cbz = O=C(OCc1ccccc1)*; CH2F = FC*
# How the values were obtained:
# [1] = system: Fas, FADD, cleaved caspase-8 and caspase-3; experiment: Fas pathway in lumbar spinal cord of G93A transgenic mice (Western blot); settings: at 12 weeks of age; 2-hydroxy-TTBA 30 mg/kg/d, Li^+ 200 mg/kg/d in the diet
# Experimental: G93A transgenic mice received oral administration of 2-hydroxy-TTBA (30 mg/kg/d) in the diet from 8 weeks of age.
# [2] = system: mixed cortical cell cultures containing neurons and glia; experiment: BSO-induced free radical neurotoxicity in mixed cortical cell cultures (LDH release); format: cell-based, mouse
# Experimental: Mouse cortical cell cultures (DIV 11-15) were exposed to 10 mM BSO, alone or with indicated doses of 2-Hydroxy-TTBA or 2-Hydroxy-TPEA. Neuronal death was analyzed 24 hr later by measuring levels of LDH released into the bathing medium, mean±SEM (n=9-12 culture wells per condition). *, Significant difference from BSO alone, p<0.05 using ANOVA and Student-Newman-Keuls test.
# (§1) Mouse cortical cell cultures (DIV 11-15) were exposed to 50 μM Fe^2+ or 10 mM BSO, alone or with inclusion of 5 mM Li^+. Neuronal death was analyzed 24 hr later by measuring levels of LDH released into the bathing medium, mean±SEM (n=9-12 culture wells per condition).
# Mouse cortical cell cultures (DIV 11-15) were exposed to 30 μM Fe^2+ or 10 mM BSO, alone or in the presence of 1 μM 2-hydroxy TTBA, 10-100 μM vitamin E, or 5 mM Li^+. Neuronal death was analyzed 24 h later by measuring LDH efflux in the bathing media (mean±SEM, n=12). *, Significant difference from the relevant control (Fe^2+ or BSO alone), p<0.05 using ANOVA and Student-Newman-Keuls test.
# For mixed neuron-glia culture, mouse cerebral cortices were removed from brains of the 11-15 day-old-fetal mice (E11-15), gently triturated and plated on 24 well plates (2×10^5 cells/plate) precoated with 100 μg/ml poly-D-lysine and 4 pg/ml laminin. Cultures were maintained at 37° C. in a humidified 5% CO2 atmosphere. Plating media consist of Eagles minimal essential media (MEM, Earles salts, supplied glutamine-free) supplemented with 5% horse serum, 5% fetal bovine serum, 26.5 mM bicarbonate, 2 mM glutamine, and 21 mM glucose.
# After 7-8 days in vitro (DIV 7-8), 10 μM cytosine arabinofuranoside (Ara-C) was included to halt overgrowth of glia. The drug treatment was carried on DIV 11-15 cortical cell culture. Overall neuronal cell injury was assessed by measuring amount of lactate dehydrogenase (LDH) released into the bathing medium 24 hr after neurotoxic insults as previously described (Koh and Choi, J Neurosci Methods 20:83-90, 1987).
# Oxidative stress was induced by exposing mixed cortical cell cultures containing neurons and glia (DIV 11-15) to 50 μM FeCl2, a hydroxyl radical-producing transition metal via a Fenton reaction, or 10 mM DL-buthionine-[S,R]-sulfoximine (BSO), a glutathione depleting agent. Widespread neuronal death was observed 24 hours later. […] Administration of vitamin E prevented Fe^2+-induced free radical neurotoxicity at higher doses. This implies that 2-Hydroxy-TTBA or 2-Hydroxy-TPEA is a potent neuroprotectant against oxidative stress.
# [3] = system: cortical cell cultures containing neurons and glia; experiment: cyclosporine A or calyculin A-induced neuronal cell apoptosis in cortical cell cultures; format: cell-based, mouse; settings: 24 hr; for cyclosporine A-induced neuronal cell apoptosis, effect in words: 20 μM cyclosporine A, 100 μM Vitamin E, 1 μM 2-hydroxy-TTBA, 1 μM 2-hydroxy-TPEA
# Experimental: Mouse cortical cell cultures (DIV 10-12) were exposed to 20 μM cyclosporine A or 10 nM calculin A, alone or with inclusion of 0.3-30 mM Li. Neuronal death was analyzed 24-28 hr later by measuring levels of LDH released into the bathing medium, mean±SEM (n=9-12 culture wells per condition).
# Mouse cortical cell cultures (DIV 10-12) were exposed to 20 μM cyclosporine A, alone or with 100 μM Vitamin E, 1 μM 2-hydroxy-TTBA, or 1 μM 2-hydroxy-TPEA. Neuronal death was analyzed 24 hr later by measuring levels of LDH released into the bathing medium, mean±SEM (n=9-12 culture wells per condition).
# Cortical cell cultures containing neurons and glia at 10-12 days in vitro (DIV 10-12) were exposed to 20 μM cyclosporine A (CsA) or 10 nM caliculin A (cal A). Neurons underwent widespread apoptosis 24 hr later as previously reported (McDonald et al., 1996; Ko et al., 2000). […] This implies that Li^+ and the neuroprotective drugs (vitamin E, trolox, BAS, CBAS, FBAS, TBAS, PBAS, MBAS, NPAA, NPPAA, 2-Hydroxy-TTBA, and 2-Hydroxy-TPEA) selectively prevent neuronal cell apoptosis and free radical-mediated necrosis, respectively.
# [4] = system: neuron-rich cortical cell cultures; experiment: serum deprivation-induced neuronal cell apoptosis; format: cell-based, mouse; settings: 24 hr; 5 mM Li^+, 100 μM zVADfmk, 1 μM 2-hydroxy TTBA
# Experimental: (§2) (B) Neuron-rich cortical cell cultures (DIV 7) were deprived of serum, alone or with addition of 100 μM zVADfmk, 1 μM 2-hydroxy TTBA, or 5 mM Li^+. Neuronal death was analyzed 24 hr later by counting viable neurons excluding trypan (mean±SEM, n=4). *, Significant difference from the relevant control (serum deprivation alone), p<0.05 using ANOVA and Student-Neuman-Keuls test. (C) Western blot analysis of FADD antibody following immunoprecipitation with Fas antibody in the same samples above.
# (§3) Additional experiments were performed to examine if targeting both neuronal cell necrosis and apoptosis would result in synergic neuroprotection in […] transgenic mice. […] Neuronal cell apoptosis was induced by serum deprivation in neuron-rich cortical cell cultures as reported, which was prevented by addition of 5 mM Li^+ as well as zVADfmk, a broad spectrum inhibitor of caspases (FIG. 5B). […] Additional experiments were performed to examine if Li^+ would prevent Fas signaling pathway. […] This implies that 2-Hydroxy-TTBA and Li^+ blocks oxidative neuronal cell necrosis and apoptosis, respectively.
# [5] = system: mixed cortical cell cultures containing neurons and glia; experiment: Fe2+-induced free radical neurotoxicity in mixed cortical cell cultures (LDH release); format: cell-based, mouse; settings: for Fe^2+-induced free radical neurotoxicity, effect in words: 50 μM Fe^2+, 24 hr, 2-Hydroxy-TTBA or 2-Hydroxy-TPEA at doses as low as 0.3 μM, vitamin E at higher doses, Li^+ 10 mM (legend 5 mM); for IC50: 50 μM FeCl2, neuronal death 24 hr later (LDH), read-out: IC50 (50% protection against Fe^2+-induced free radical neurotoxicity)
# Experimental: as §1
# Mouse cortical cell cultures (DIV 11-15) were exposed to 30 μM Fe^2+ or 10 mM BSO, alone or in the presence of 1 μM 2-hydroxy TTBA, 10-100 μM vitamin E, or 5 mM Li^+.
# For mixed neuron-glia culture, mouse cerebral cortices were removed from brains of the 11-15 day-old-fetal mice (E11-15), gently triturated and plated on 24 well plates (2×10^5 cells/plate) precoated with 100 μg/ml poly-D-lysine and 4 pg/ml laminin. Cultures were maintained at 37° C. in a humidified 5% CO2 atmosphere.
# After 7-8 days in vitro (DIV 7-8), 10 μM cytosine arabinofuranoside (Ara-C) was included to halt overgrowth of glia. The drug treatment was carried on DIV 11-15 cortical cell culture.
# Oxidative stress was induced by exposing mixed cortical cell cultures containing neurons and glia (DIV 11-15) to 50 μM FeCl2, a hydroxyl radical-producing transition metal via a Fenton reaction, or 10 mM DL-buthionine-[S,R]-sulfoximine (BSO), a glutathione depleting agent.
# G93A transgenic mice = format: in vivo, mouse
# Experimental: Animals were daily fed with 2-hydroxy TTBA (30 mg/kg/d), 0.2% lithium carbonate (200 mg/kg/d, Li), or a combination of both (2-hydroxy TTBA+Li) from 8 weeks of age in diet.
# Animals were daily fed with 2-hydroxy TTBA (30 mg/kg/d), 0.2% lithium carbonate (Li), or a combination of both (2-hydroxy TTBA+Li) from 8 weeks of age in diet.
# C & D: (C) Bright-field photomicrographs of cresyl violet-stained ventral horn sections from the wild type (a), or G93AA transgenic mice treated with vehicle (b), or with a combination of 2-hydroxy TTBA+Li (c) at 16 weeks of age.
# Fas-FADD interaction = Fas-FADD interaction in serum-deprived neuron-rich cultures (immunoprecipitation, Western blot); format: cell-based, mouse; settings: deprived of serum for 8 hr
# Experimental: as §2, §3
# [6] = single-dose toxicity test; settings: mouse, in vivo
# Experimental: Single-dose toxicity test of compounds showing good results in the above three efficacy tests were evaluated.
# beta-amyloid (Aβ42) = experiment: suppression of beta-amyloid (Aβ42) production in CHO cells (ELISA); format: cell-based, Chinese hamster; settings: Cricetulus griseus; CHO cells stably transfected with human wild APP695 and PS1ΔExon9; culture medium, ELISA; read-out: Aβ42 lowering effect (IC50)
# Experimental: The suppressing effects of many drug candidates on production of beta-amyloid were evaluated in CHO cell line having the increased level of beta-amyloid. Results were shown as IC50 (uM) (Item C of Table 3 below).
# In the Table 3, A, B and C mean neuron protecting effect against Fe^+2, suppressing effect on production of NO and suppressing effect on production of beta-amyloid, respectively. The term “ND” means “Not determined.”
# Cells were treated with increasing concentrations of various chemicals in Chinese hamster ovary (CHO) cells stably transfected with human wild APP695 and the PS1ΔExon9, and analyzed Aβ42 levels in culture medium by colorimetric sandwich ELISA kit (BIOSOURCE, Camarillo, Calif.). In CHO cells, IC50 of Chemical—01-08 on Aβ42 lowering effect was 20-100 uM (Table 4).
# [7] = 2-hydroxy TTBA 30 mg/kg/d, 0.2% lithium carbonate, or both, in diet from 8 weeks of age, n=13
compound,measurement,setting,value
"[Li+] [Li^+, lithium ion, reference compound]","levels of Fas, FADD, cleaved caspase-8 and caspase-3 (Fas pathway) in lumbar spinal cord",[1],completely blocked
same,"BSO-induced free radical neurotoxicity, effect in words","[2]; 10 mM BSO, 24 hr, 2-Hydroxy-TTBA or 2-Hydroxy-TPEA at doses as low as 0.3 μM, Li^+ 10 mM (legend 5 mM)",did not attenuate; also recorded: does not attenuate
same,"BSO-induced neuronal death (oxidative stress), effect in words","[2]; FIG. 5A: 10 mM BSO, 24 h, 1 μM 2-hydroxy TTBA (submicromolar), 5 mM Li^+",not attenuated and not
same,"neuronal cell apoptosis, effect in words","[3]; 20 μM cyclosporine A or 10 nM calyculin A, Li^+ at doses of 3-30 mM",dose-dependently attenuated
same,"serum deprivation-induced neuronal cell apoptosis, effect in words",[4],prevented; also recorded: prevents apoptosis
same,"Fe^2+-induced free radical neurotoxicity, effect in words",[5],did not attenuate; also recorded: does not attenuate
same,"Fe^2+-induced neuronal death (oxidative stress), effect in words","[5]; FIG. 5A: 30 μM Fe^2+, 24 h, 1 μM 2-hydroxy TTBA (submicromolar), 5 mM Li^+",not attenuated and not
same,Mortality (survival),G93A transgenic mice; [7],137.2 days and 137.2^a ± 2.20 days
same,Onset from PaGE,G93A transgenic mice; [7],113.3 days and 113.3^a ± 2.28 days
same,Onset from Rotarod,G93A transgenic mice; [7],114.7 days and 114.7^a ± 2.23 days
same,"weight loss, % of the wild type","G93A transgenic mice; G93A mice at 18 weeks of age, oral administration in diet",53%
same,"extension reflex, motor strength, and coordination","G93A transgenic mice; G93A mice, drug in diet",improved
same,degeneration (loss) of ventral motor neurons in lumbar spinal cord,G93A transgenic mice; at 16 weeks of age,58%
same,motor performance versus vehicle-treated control,"G93A transgenic mice; from 11 weeks to 18 weeks, in the diet",better motor performance
same,"Fas-FADD interaction, effect in words",Fas-FADD interaction,blocked
"O=C(O)c1cc(NCCCc2ccc([N+](=O)[O-])cc2)ccc1O [NPPAA, 5-[3-(4-nitrophenyl)-n-propyl]aminosalicylic acid]",IC50,"[5]; Mus musculus, Neuron",200 nM
"O=C(O)c1cc(NCc2c(F)c(F)c(F)c(F)c2F)ccc1O [PBAS, 5-(pentafluoro-benzyl)aminosalicylic acid]",IC50,[5],100 nM
O=C(O)c1cc(NCc2ccc(C(F)(F)F)cc2)ccc1O [TBAS],IC50,[5],310 nM
"Cc1c(C)c2c(c(C)c1O)CCC(C)(C(=O)O)O2 (centres unmarked) [Trolox, reference compound]",IC50,"[5]; Mus musculus, Neuron",3340 nM
"O=C(O)c1cc(NCCc2cccc(C(F)(F)F)c2)ccc1O [chemical 04, 2-Hydroxy-5-[2-(3-trifluoromethyl-phenyl)-ethylamino]-benzoic acid]","single-dose toxicity, result in words",[6],high toxicity or dose-independent toxicity
"O=C(O)c1cc(NCCc2cc(C(F)(F)F)cc(C(F)(F)F)c2)ccc1O [chemical 27, 5-[2-(3,5-Bis-trifluoromethyl-phenyl)-ethylamino]-2-hydroxy-benzoic acid]",IC50,beta-amyloid (Aβ42),109 µM
same,"single-dose toxicity, result in words",[6],did not show dose-dependent result
"O=C(O)c1cc(NCCCc2ccc(C(F)(F)F)cc2)ccc1O [chemical 42, 2-Hydroxy-5-[3-(4-trifluoromethyl-phenyl)-propylamino]-benzoic acid]",IC50,beta-amyloid (Aβ42),68.3 µM
same,"single-dose toxicity, result in words",[6],high toxicity or dose-independent toxicity
COC(=O)C[C@H](NC(=O)[C@H](C)NC(=O)[C@@H](NC(=O)OCc1ccccc1)C(C)C)C(=O)CF [zVADfmk] (Cbz-Val-Ala-Asp(OMe)-CH2F),"serum deprivation-induced neuronal cell apoptosis, effect in words",[4],prevented
Vitamin E [reference compound],"cyclosporine A-induced neuronal cell apoptosis, effect in words",[3],do not attenuate
same,"cyclosporine A-induced neuronal cell apoptosis, effect in words",[3]; listed as vitamin E,not attenuated
same,IC50,[5],22000 nM
same,"Fe^2+-induced free radical neurotoxicity, effect in words",[5],prevented
